We go through two compounds from patent publication US20020068360A1, “Cyclohexanediol cryoprotectant compounds” (priority 2000, published 2002).

The experiment has as its system AV5 cells. In words: Cell viability (Alamar Blue) of AV5 cells after cryopreservation and warming. The note with it: 0 to 1 M CHD added to 1 M DMSO or to DMSO/formamide/propanediol (final 1 M), normalized to conventional cryoprotectant alone, FIGS. 2 and 3. The class given is cell-based, porcine. Here is the method: A primary cell strain called AV5 was used for these experiments. AV5 cells are derived from porcine heart valve leaflets. Hearts were obtained from pigs and the heart valve leaflets were then removed and washed several times with sterile phosphate-buffered saline (PBS). Small pieces (˜1 mm^2) were cut and placed into a 24-well microtiter plate coated with 0.2% gelatin. Dulbecco's Modified Eagle's Medium (DMEM) with 10% fetal calf serum (FCS) was added to just cover the bottom of the well and the plate was left at 37° C. with 5% CO2 in air until visible outgrowth occurred. […]
Cell viability was then determined using the non-invasive metabolic indicator Alamar Blue (Trek Diagnostics). […] Fluorescence from Alamar Blue was read in a fluorescent microplate reader (Fmax fluorescent microplate reader by […]) using an excitation wavelength of 544 nm and an emission wavelength of 590 nm.
The first set of experiments involved using two CPA compositions, either 1 M dimethyl sulfoxide (DMSO) (left bar of graph at each concentration of 1,3CHD in FIG. 2 and 1,4CHD in FIG. 3) or a combination of DMSO, formamide and propanediol at a final concentration of 1 M (right bar of graph at each concentration of 1,3CHD in FIG. 2 and 1,4CHD in FIG. 3). […] Cell viability was assessed using the assay described above. […]
On the technique in general: Resazurin is reduced to fluorescent resorufin, in cell work by metabolically active cells.

The structures appear in SMILES notation.

For the compound `OC1CCCC(O)C1` (centres unmarked) [1,3CHD, 1,3-cyclohexanediol], the “relative cell viability after freezing” value is on record as “significantly increased”.

Consider `OC1CCC(O)CC1` (centres unmarked) [1,4CHD, 1,4-cyclohexanediol], for which the “relative cell viability after freezing” value is reported as “significantly increased”.
